Here are results for two molecules from ChEMBL document CHEMBL5120882, “Medicinal Chemistry Perspective on Targeting Mono-ADP-Ribosylating PARPs with Small Molecules” (J Med Chem, 2022).

In experiment [1] the target is T1, Poly [ADP-ribose] polymerase tankyrase-1 (Homo sapiens, UniProt O95271).
T1 sequence (O95271 whole entry): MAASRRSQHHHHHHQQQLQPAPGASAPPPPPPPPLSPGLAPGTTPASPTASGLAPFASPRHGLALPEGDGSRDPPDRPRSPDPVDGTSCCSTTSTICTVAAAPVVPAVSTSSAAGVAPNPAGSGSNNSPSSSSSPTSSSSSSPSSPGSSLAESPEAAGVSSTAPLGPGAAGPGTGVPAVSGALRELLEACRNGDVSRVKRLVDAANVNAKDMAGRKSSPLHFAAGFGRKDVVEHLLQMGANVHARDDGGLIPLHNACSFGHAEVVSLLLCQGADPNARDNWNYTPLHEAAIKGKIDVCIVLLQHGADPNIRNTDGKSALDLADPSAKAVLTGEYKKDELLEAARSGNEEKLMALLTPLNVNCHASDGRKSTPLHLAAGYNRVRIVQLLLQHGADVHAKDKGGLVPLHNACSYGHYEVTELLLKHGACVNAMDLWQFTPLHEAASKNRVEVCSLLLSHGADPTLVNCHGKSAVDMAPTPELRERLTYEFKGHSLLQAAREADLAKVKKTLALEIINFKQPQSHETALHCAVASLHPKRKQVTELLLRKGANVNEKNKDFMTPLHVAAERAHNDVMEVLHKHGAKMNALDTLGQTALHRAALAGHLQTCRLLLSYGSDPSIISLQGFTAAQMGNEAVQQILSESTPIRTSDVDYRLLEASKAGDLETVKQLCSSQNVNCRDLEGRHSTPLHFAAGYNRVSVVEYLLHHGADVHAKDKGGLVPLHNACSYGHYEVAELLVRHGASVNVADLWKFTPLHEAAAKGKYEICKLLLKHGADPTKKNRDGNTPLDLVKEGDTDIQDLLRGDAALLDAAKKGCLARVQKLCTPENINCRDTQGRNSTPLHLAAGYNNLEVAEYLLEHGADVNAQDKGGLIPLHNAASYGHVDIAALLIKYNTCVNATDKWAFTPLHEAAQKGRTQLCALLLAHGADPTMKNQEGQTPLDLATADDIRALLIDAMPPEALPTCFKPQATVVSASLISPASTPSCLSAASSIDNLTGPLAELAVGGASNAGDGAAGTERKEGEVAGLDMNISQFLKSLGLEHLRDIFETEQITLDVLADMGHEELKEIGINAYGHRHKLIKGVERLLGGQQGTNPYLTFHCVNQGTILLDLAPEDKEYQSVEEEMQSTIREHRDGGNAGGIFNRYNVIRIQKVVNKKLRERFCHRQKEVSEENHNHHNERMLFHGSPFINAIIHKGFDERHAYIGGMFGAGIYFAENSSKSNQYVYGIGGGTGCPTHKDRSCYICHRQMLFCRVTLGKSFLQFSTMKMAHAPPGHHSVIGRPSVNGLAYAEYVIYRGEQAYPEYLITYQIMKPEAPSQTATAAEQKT
Description: Inhibition of N-terminal his-tagged human TNKS1 expressed in Escherichia coli Rosette2 (DE3).

The target of experiment [2] is Poly [ADP-ribose] polymerase 2 (Homo sapiens, UniProt Q9UGN5). Description: Inhibition of N-terminal his-tagged human PARP2 expressed in Escherichia coli Rosette2 (DE3).
The target in experiment [3] is Poly [ADP-ribose] polymerase 1 (Homo sapiens, UniProt P09874). Description: Inhibition of N-terminal his-tagged human PARP1 expressed in Escherichia coli Rosette2 (DE3).
Experiment [4] addresses T2, Protein mono-ADP-ribosyltransferase PARP10 (Homo sapiens, UniProt Q53GL7).
T2 sequence (Q53GL7 whole entry): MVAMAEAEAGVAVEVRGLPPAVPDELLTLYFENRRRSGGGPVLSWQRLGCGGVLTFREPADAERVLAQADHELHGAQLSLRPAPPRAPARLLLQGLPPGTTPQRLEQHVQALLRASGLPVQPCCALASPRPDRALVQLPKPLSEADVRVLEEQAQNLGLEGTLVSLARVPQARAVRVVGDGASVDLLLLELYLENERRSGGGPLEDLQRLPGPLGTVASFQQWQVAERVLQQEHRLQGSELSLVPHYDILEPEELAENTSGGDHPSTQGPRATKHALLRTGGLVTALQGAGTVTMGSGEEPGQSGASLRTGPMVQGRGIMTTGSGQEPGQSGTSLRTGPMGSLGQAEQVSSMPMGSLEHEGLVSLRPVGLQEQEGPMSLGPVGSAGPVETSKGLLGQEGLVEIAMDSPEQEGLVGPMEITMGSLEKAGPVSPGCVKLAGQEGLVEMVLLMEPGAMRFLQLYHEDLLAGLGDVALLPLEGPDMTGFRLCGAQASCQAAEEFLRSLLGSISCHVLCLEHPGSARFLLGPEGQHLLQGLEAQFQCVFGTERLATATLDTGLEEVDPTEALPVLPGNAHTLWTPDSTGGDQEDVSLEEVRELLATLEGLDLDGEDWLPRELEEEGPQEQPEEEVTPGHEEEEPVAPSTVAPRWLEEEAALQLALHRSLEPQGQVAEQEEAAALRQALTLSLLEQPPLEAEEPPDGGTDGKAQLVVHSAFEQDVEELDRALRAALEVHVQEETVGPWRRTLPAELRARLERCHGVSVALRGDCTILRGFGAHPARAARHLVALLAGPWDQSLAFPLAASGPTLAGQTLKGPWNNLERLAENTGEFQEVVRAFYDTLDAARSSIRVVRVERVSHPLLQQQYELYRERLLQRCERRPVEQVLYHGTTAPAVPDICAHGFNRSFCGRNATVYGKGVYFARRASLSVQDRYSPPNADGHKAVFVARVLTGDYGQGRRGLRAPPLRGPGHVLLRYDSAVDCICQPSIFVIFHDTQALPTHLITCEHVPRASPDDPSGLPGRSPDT
As to the kind of experiment: Inhibition of C-terminal his-tagged human PARP10 expressed in Escherichia coli Rosette2 (DE3).

In experiment [5] the target is Protein mono-ADP-ribosyltransferase PARP14 (Homo sapiens, UniProt Q460N5). As to the kind of experiment: Inhibition of N-terminal his-tagged human PARP14 expressed in Escherichia coli Rosette2 (DE3).

pIC50: −log10 of the molar value.

Chain of Poly [ADP-ribose] polymerase 2 (Q9UGN5 whole entry): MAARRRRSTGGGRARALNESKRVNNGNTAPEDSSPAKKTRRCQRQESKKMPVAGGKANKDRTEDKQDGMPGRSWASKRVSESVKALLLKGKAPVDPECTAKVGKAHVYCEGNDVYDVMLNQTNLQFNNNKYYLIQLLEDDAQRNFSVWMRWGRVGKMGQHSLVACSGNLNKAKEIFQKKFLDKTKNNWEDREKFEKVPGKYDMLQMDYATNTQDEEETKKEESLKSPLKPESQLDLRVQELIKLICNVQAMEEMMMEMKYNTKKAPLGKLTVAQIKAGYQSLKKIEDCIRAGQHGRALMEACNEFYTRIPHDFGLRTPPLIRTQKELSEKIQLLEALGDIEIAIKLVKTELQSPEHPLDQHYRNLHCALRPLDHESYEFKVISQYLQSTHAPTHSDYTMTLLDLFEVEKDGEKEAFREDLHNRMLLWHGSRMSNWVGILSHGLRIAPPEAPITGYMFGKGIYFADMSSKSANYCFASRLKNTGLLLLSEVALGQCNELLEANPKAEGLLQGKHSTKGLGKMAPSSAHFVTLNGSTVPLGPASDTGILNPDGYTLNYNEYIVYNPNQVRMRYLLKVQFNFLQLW
Chain of Poly [ADP-ribose] polymerase 1 (P09874 whole entry): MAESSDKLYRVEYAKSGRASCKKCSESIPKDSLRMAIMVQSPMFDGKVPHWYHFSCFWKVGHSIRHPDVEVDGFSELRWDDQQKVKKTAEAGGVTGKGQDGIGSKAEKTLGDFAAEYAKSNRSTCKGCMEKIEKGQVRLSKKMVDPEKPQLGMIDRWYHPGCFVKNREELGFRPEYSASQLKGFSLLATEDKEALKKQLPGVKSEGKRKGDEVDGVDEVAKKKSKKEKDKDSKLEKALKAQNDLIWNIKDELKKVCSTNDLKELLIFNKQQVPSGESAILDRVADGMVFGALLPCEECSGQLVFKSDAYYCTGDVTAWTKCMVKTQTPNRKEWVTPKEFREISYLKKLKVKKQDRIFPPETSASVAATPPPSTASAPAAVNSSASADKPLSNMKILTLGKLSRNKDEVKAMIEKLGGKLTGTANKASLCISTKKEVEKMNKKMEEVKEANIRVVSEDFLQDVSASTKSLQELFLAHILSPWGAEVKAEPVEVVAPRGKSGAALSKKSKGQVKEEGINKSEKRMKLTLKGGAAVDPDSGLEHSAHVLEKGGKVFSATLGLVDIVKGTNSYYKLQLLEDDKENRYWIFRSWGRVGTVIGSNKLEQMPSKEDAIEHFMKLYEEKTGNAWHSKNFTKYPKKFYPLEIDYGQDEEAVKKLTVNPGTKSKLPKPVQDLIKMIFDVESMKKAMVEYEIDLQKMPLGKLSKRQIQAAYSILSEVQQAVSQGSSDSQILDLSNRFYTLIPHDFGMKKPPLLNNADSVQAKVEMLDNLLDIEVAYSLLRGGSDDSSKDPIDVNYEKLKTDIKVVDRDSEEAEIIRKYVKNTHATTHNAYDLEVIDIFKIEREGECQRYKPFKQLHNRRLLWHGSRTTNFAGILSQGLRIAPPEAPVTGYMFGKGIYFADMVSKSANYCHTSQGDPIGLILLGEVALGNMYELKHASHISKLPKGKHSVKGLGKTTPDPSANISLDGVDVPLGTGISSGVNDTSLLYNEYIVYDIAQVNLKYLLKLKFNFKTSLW
Chain of Protein mono-ADP-ribosyltransferase PARP14 (Q460N5 whole entry): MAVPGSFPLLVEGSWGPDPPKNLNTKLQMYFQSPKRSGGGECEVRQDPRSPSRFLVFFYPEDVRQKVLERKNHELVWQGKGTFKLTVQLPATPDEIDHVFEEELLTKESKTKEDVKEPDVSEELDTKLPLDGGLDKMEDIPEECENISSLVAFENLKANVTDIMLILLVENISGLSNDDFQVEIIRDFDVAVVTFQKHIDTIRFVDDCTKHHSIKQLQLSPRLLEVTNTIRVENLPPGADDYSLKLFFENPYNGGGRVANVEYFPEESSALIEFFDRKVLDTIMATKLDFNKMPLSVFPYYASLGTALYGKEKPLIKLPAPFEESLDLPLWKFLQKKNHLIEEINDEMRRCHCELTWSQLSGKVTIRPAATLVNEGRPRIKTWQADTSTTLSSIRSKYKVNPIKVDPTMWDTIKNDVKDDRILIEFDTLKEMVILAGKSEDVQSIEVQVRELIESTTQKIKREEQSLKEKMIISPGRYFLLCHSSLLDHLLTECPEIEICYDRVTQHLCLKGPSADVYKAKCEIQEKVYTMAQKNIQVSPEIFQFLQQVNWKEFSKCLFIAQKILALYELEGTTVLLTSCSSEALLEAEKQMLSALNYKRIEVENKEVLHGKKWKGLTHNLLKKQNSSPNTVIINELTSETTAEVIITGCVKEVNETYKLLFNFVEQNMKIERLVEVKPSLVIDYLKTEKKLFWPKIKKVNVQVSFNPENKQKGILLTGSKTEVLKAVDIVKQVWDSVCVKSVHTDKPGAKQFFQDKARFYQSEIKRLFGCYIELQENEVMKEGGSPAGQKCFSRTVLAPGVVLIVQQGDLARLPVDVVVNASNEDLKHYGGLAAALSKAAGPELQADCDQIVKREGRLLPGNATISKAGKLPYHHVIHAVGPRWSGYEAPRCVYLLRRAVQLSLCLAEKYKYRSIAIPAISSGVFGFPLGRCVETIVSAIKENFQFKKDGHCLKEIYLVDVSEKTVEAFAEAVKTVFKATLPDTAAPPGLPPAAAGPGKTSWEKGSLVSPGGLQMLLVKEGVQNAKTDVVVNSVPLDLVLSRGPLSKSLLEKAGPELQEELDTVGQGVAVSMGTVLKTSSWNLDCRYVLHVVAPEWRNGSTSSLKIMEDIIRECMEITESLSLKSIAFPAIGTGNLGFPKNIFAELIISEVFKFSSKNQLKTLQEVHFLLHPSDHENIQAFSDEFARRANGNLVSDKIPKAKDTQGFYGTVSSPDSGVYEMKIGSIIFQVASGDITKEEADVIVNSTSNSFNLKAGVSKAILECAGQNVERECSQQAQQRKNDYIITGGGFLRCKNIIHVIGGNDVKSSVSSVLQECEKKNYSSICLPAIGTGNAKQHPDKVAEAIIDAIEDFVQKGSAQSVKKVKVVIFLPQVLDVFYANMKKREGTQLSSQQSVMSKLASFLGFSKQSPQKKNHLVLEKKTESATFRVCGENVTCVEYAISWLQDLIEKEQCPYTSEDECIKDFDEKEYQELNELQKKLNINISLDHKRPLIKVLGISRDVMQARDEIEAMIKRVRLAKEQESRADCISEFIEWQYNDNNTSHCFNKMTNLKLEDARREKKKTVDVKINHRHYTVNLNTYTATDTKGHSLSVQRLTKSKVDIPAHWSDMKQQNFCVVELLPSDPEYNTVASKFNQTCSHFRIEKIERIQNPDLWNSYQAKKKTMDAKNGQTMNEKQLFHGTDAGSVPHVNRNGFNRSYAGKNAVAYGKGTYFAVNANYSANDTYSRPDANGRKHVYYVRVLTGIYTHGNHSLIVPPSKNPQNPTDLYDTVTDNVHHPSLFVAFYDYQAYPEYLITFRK

For `NC(=O)c1ccc(Oc2cccc(C(N)=O)c2)cc1`, the pIC50 (usually −log10 of the IC50, conventionally taken in molar units) in experiment [1] was 4.68; in experiment [2], 5.77; in experiment [3], less than 4.00; in experiment [4] it was 6.32; in experiment [5], 4.39.
For `N#Cc1ccc(Oc2ccc(C(N)=O)cc2)cc1` the same measures were less than 4.00, 4.57, less than 4.00, 5.44 and less than 4.00.
